Tests used:
[1] = test system: barnyard grass; experiment: Test Example 3: herbicidal effect by foliage application, Wagner pot (Table 18, symbol H); format: in vivo, barnyard grass (Echinochloa crus-galli); settings: amount of applied herbicide 320 g/ha
Procedure, shortened: (§1)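 Plants were sown in alluvial soil held under 0.1–0.5 cm standing water and grown 14 days in a greenhouse at 25–30 °C. An emulsifiable formulation, water-diluted to the set dose, was then sprayed onto the foliage, and effects were scored three weeks later using previously defined criteria.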

[2] = test system: Chinese sprangletop; experiment: Test Example 3: herbicidal effect by foliage application, Wagner pot (Table 18, symbol D); format: in vivo, chinese sprangletop (Leptochloa chinensis); settings: amount of applied herbicide 320 g/ha
Procedure, shortened: as §1

[3] = test system: rice flat sedge; experiment: Test Example 3: herbicidal effect by foliage application, Wagner pot (Table 18, symbol E); format: in vivo, rice flat sedge (Cyperus iria); settings: amount of applied herbicide 320 g/ha
Procedure, shortened: as §1

[4] = test system: southern crabgrass; experiment: Test Example 4: herbicidal effect by soil treatment (Table 19, symbol F); format: in vivo, southern crabgrass (Digitaria ciliaris); settings: amount of applied herbicide 320 g/ha
Procedure, shortened: (§2)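 Herbicidal effect was rated 3 weeks after treatment, using the scoring criteria of an earlier test. The compound, formulated as an emulsion and diluted in water to a set herbicide amount, had been sprayed uniformly on soil over freshly sown seeds. Growth took place in a greenhouse at 25° C. to 30° C.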

[5] = test system: green foxtail; experiment: Test Example 4: herbicidal effect by soil treatment (Table 19, symbol G); format: in vivo, green foxtail (Setaria viridis); settings: amount of applied herbicide 320 g/ha
Procedure, shortened: as §2

[6] = test system: barnyard grass; experiment: Test Example 4: herbicidal effect by soil treatment (Table 19, symbol H); format: in vivo, barnyard grass (Echinochloa crus-galli); settings: amount of applied herbicide 320 g/ha
Procedure, shortened: as §2

[7] = test system: wild oat; experiment: Test Example 4: herbicidal effect by soil treatment (Table 19, symbol I); format: in vivo, wild oat (Avena fatua); settings: amount of applied herbicide 320 g/ha
Procedure, shortened: as §2

[8] = test system: blackgrass; experiment: Test Example 4: herbicidal effect by soil treatment (Table 19, symbol J); format: in vivo, blackgrass (Alopecurus myosuroides); settings: amount of applied herbicide 320 g/ha
Procedure, shortened: as §2

[9] = test system: Italian ryegrass; experiment: Test Example 4: herbicidal effect by soil treatment (Table 19, symbol K); format: in vivo, Italian ryegrass (Lolium multiflorum); settings: amount of applied herbicide 320 g/ha
Procedure, shortened: as §2

[10] = test system: windgrass; experiment: Test Example 4: herbicidal effect by soil treatment (Table 19, symbol L); format: in vivo, windgrass (Apera spica-venti); settings: amount of applied herbicide 320 g/ha
Procedure, shortened: as §2

[11] = test system: velvetleaf; experiment: Test Example 4: herbicidal effect by soil treatment (Table 19, symbol M); format: in vivo, velvetleaf (Abutilon theophrasti); settings: amount of applied herbicide 320 g/ha
Procedure, shortened: as §2

[12] = test system: redroot pigweed; experiment: Test Example 4: herbicidal effect by soil treatment (Table 19, symbol N); format: in vivo, redroot pigweed (Amaranthus retroflexus); settings: amount of applied herbicide 320 g/ha
Procedure, shortened: as §2

[13] = test system: lambsquarters; experiment: Test Example 4: herbicidal effect by soil treatment (Table 19, symbol O); format: in vivo, lambsquarters (Chenopodium album); settings: amount of applied herbicide 320 g/ha
Procedure, shortened: as §2

[14] = test system: chickweed; experiment: Test Example 4: herbicidal effect by soil treatment (Table 19, symbol P); format: in vivo, common chickweed (Stellaria media); settings: amount of applied herbicide 320 g/ha
Procedure, shortened: as §2

[15] = test system: persian speedwell; experiment: Test Example 4: herbicidal effect by soil treatment (Table 19, symbol R); format: in vivo, Persian speedwell (Veronica persica); settings: amount of applied herbicide 320 g/ha
Procedure, shortened: as §2

[16] = test system: southern crabgrass; experiment: Test Example 5: herbicidal effect by foliage application, plastic box (Table 20, symbol F); format: in vivo, southern crabgrass (Digitaria ciliaris); settings: foliage application, AAH 320 g/ha, evaluated three weeks after application
Procedure, shortened: (§3)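 Foliar spray test: emulsion formulation diluted in water to a set application rate, sprayed onto 14-day-old plants raised in diluvial soil at 25° C to 30° C under glass. Both herbicidal effect and crop effect rated visually three weeks later.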

[17] = test system: green foxtail; experiment: Test Example 5: herbicidal effect by foliage application, plastic box (Table 20, symbol G); format: in vivo, green foxtail (Setaria viridis); settings: foliage application, AAH 320 g/ha, evaluated three weeks after application
Procedure, shortened: as §3

[18] = test system: barnyard grass; experiment: Test Example 5: herbicidal effect by foliage application, plastic box (Table 20, symbol H); format: in vivo, barnyard grass (Echinochloa crus-galli); settings: foliage application, AAH 320 g/ha, evaluated three weeks after application
Procedure, shortened: as §3

[19] = test system: wild oat; experiment: Test Example 5: herbicidal effect by foliage application, plastic box (Table 20, symbol I); format: in vivo, wild oat (Avena fatua); settings: foliage application, AAH 320 g/ha, evaluated three weeks after application
Procedure, shortened: as §3

[20] = test system: blackgrass; experiment: Test Example 5: herbicidal effect by foliage application, plastic box (Table 20, symbol J); format: in vivo, blackgrass (Alopecurus myosuroides); settings: foliage application, AAH 320 g/ha, evaluated three weeks after application
Procedure, shortened: as §3

[21] = test system: Italian ryegrass; experiment: Test Example 5: herbicidal effect by foliage application, plastic box (Table 20, symbol K); format: in vivo, Italian ryegrass (Lolium multiflorum); settings: foliage application, AAH 320 g/ha, evaluated three weeks after application
Procedure, shortened: as §3

[22] = test system: windgrass; experiment: Test Example 5: herbicidal effect by foliage application, plastic box (Table 20, symbol L); format: in vivo, windgrass (Apera spica-venti); settings: foliage application, AAH 320 g/ha, evaluated three weeks after application
Procedure, shortened: as §3

[23] = test system: velvetleaf; experiment: Test Example 5: herbicidal effect by foliage application, plastic box (Table 20, symbol M); format: in vivo, velvetleaf (Abutilon theophrasti); settings: foliage application, AAH 320 g/ha, evaluated three weeks after application
Procedure, shortened: as §3

[24] = test system: redroot pigweed; experiment: Test Example 5: herbicidal effect by foliage application, plastic box (Table 20, symbol N); format: in vivo, redroot pigweed (Amaranthus retroflexus); settings: foliage application, AAH 320 g/ha, evaluated three weeks after application
Procedure, shortened: as §3

[25] = test system: lambsquarters; experiment: Test Example 5: herbicidal effect by foliage application, plastic box (Table 20, symbol O); format: in vivo, lambsquarters (Chenopodium album); settings: foliage application, AAH 320 g/ha, evaluated three weeks after application
Procedure, shortened: as §3

[26] = test system: chickweed; experiment: Test Example 5: herbicidal effect by foliage application, plastic box (Table 20, symbol P); format: in vivo, common chickweed (Stellaria media); settings: foliage application, AAH 320 g/ha, evaluated three weeks after application
Procedure, shortened: as §3

[27] = test system: persian speedwell; experiment: Test Example 5: herbicidal effect by foliage application, plastic box (Table 20, symbol R); format: in vivo, Persian speedwell (Veronica persica); settings: foliage application, AAH 320 g/ha, evaluated three weeks after application
Procedure, shortened: as §3

SMILES: Cc1nn(C)c(=O)c(-c2c(-c3ccc(Cl)cc3Cl)sc3ccc(F)cc23)c1O [2-346]
- herbicidal effect on H: barnyard grass [1]: 4 (Herbicidal rate of 70% or more and less than 90%)
- herbicidal effect on D: Chinese sprangletop [2]: 3 (Herbicidal rate of 40% or more and less than 70%)
- herbicidal effect on E: rice flat sedge [3]: 1 (Herbicidal rate of 5% or more and less than 20%)
- herbicidal effect on F: southern crabgrass [4]: 0 (Herbicidal rate of 5% or less (almost no effect))
- herbicidal effect on G: green foxtail [5]: 0 (Herbicidal rate of 5% or less (almost no effect))
- herbicidal effect on H: barnyard grass [6]: 0 (Herbicidal rate of 5% or less (almost no effect))
- herbicidal effect on I: wild oat [7]: 0 (Herbicidal rate of 5% or less (almost no effect))
- herbicidal effect on J: blackgrass [8]: 0 (Herbicidal rate of 5% or less (almost no effect))
- herbicidal effect on K: Italian ryegrass [9]: 0 (Herbicidal rate of 5% or less (almost no effect))
- herbicidal effect on L: windgrass [10]: 0 (Herbicidal rate of 5% or less (almost no effect))
- herbicidal effect on M: velvetleaf [11]: 0 (Herbicidal rate of 5% or less (almost no effect))
- herbicidal effect on N: redroot pigweed [12]: 0 (Herbicidal rate of 5% or less (almost no effect))
- herbicidal effect on O: lambsquarters [13]: 3 (Herbicidal rate of 40% or more and less than 70%)
- herbicidal effect on P: chickweed [14]: 0 (Herbicidal rate of 5% or less (almost no effect))
- herbicidal effect on R: persian speedwell [15]: 0 (Herbicidal rate of 5% or less (almost no effect))
- F: southern crabgrass, herbicidal effect (criteria 0-5) [16]: 0 (Herbicidal rate of 5% or less (almost no effect))
- G: green foxtail, herbicidal effect (criteria 0-5) [17]: 0 (Herbicidal rate of 5% or less (almost no effect))
- H: barnyard grass, herbicidal effect (criteria 0-5) [18]: 0 (Herbicidal rate of 5% or less (almost no effect))
- I: wild oat, herbicidal effect (criteria 0-5) [19]: 0 (Herbicidal rate of 5% or less (almost no effect))
- J: blackgrass, herbicidal effect (criteria 0-5) [20]: 0 (Herbicidal rate of 5% or less (almost no effect))
- K: Italian ryegrass, herbicidal effect (criteria 0-5) [21]: 3 (Herbicidal rate of 40% or more and less than 70%)
- L: windgrass, herbicidal effect (criteria 0-5) [22]: 2 (Herbicidal rate of 20% or more and less than 40%)
- M: velvetleaf, herbicidal effect (criteria 0-5) [23]: 1 (Herbicidal rate of 5% or more and less than 20%)
- N: redroot pigweed, herbicidal effect (criteria 0-5) [24]: 3 (Herbicidal rate of 40% or more and less than 70%)
- O: lambsquarters, herbicidal effect (criteria 0-5) [25]: 2 (Herbicidal rate of 20% or more and less than 40%)
- P: chickweed, herbicidal effect (criteria 0-5) [26]: 5 (Herbicidal rate of 90% or more (almost completely withered))
- R: persian speedwell, herbicidal effect (criteria 0-5) [27]: 4 (Herbicidal rate of 70% or more and less than 90%)

From patent publication US20230085307A1, “PYRIDAZINONE COMPOUND AND HERBICIDE” (NISSAN CHEMICAL CORPORATION, priority 2019, published 2023)
